Active and inactive are the calls of the source.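 How the source made its calls: active means AC50 no more than ten times the top concentration tested, that is within one log above it; inconclusive means flat curve fit with activity between 30% and 70%, or invalid poor fit; inactive means AC50 beyond ten times the top tested dose.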
Each compound was assayed on S. cerevisiae Mot1-301 ts growth rescue, BacTiter-Glo ATP luminescence (assay: restored Mot1-301 yeast growth at 38.5C – whole organism, S. cerevisiae, Mot1-301 ts mutant, luminescence, dose retest, SUMOylation pathway inhibitor project, confirmation (AID 463204);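 further: growth at restrictive 38.5 degrees C of Mot1-301 OY566 strain; actives raise luminescence by restoring growth of the ts mutant at high temperature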).
For `COc1ccc(OC)c(NC(=O)CN(C)S(=O)(=O)c2ccc(Cl)cc2)c1`, the AC50 was > 42 µM (inactive). `CCCN1CCN(CCCNC(=O)CCn2nc(-c3ccccc3)ccc2=O)CC1` was tested, and the AC50 was > 42 µM (inactive). For `CC(=O)Nc1ccc(CN2CCCC(CO)(Cc3cccc(Cl)c3)C2)cc1` (stereo not drawn), the AC50 was > 42 µM (inactive). With `O=C(NCCCn1ccnc1)c1ccc(Cl)cc1` the AC50 was > 42 µM (inactive). `COc1ccc(NC(=O)COc2cc(C)cc(C)c2)cc1S(=O)(=O)N1CCCCC1` was tested, and the AC50 was > 42 µM (inactive). With `COc1ccccc1-c1nc2ccccc2nc1-c1ccccc1OC` the AC50 was > 42 µM (inactive). In the case of `Cc1ccc(C(=O)O)cc1[N+](=O)[O-]`, the AC50 is reported as > 42 µM (inactive). For `CCN(CC)C(=O)C1CCCN(c2ccc([N+](=O)[O-])cc2/C=N/NC(=O)c2cccc(Br)c2)C1` (stereo not drawn), the AC50 was > 42 µM (inactive). `CCn1cc(C(=O)N2CCN(c3ccc(OC)cc3)CC2)c(=O)c2cc(S(=O)(=O)N3CCOCC3)ccc21` was tested, and the AC50 was > 42 µM (inactive). In the case of `Cc1ccc(-n2nc3c(=O)n(CCCC(=O)NCc4cccc(F)c4)nc(C)c3c2C)cc1`, the AC50 is reported as > 42 µM (inactive). For `O=c1[nH]cnc2sc3c(c12)CCC3`, the AC50 was > 42 µM (inactive). In the case of `O=c1[nH]c(O)c(N=Nc2cc([N+](=O)[O-])ccc2O)c(=O)[nH]1`, the AC50 is reported as > 42 µM (inactive). In the case of `Cc1ccc2cccc(OCc3nnc(SCC(=O)O)n3C)c2n1`, the AC50 is reported as > 42 µM (inactive). In the case of `COc1cc(/C=C2\NC(=S)N(C)C2=O)ccc1OCc1cccc(F)c1`, the AC50 is reported as > 42 µM (inactive). With `Cc1cc(F)ccc1S(=O)(=O)Nc1ccccc1C(=O)Nc1ccc2[nH]c(=O)[nH]c2c1` the AC50 was > 42 µM (inactive). For `O=C(Nc1ccc2c(c1)oc1ccccc12)C1CC1`, the AC50 was > 42 µM (inactive). In the case of `O=C(CCC1CCCN(C(=O)Cc2cccc(F)c2)C1)N1CCN(c2ccccn2)CC1` (stereo not drawn), the AC50 is reported as > 42 µM (inactive). `Cc1ccc(N=c2ssnc2Cl)cc1` gave an AC50 of 3.13 µM. With `CC(OC(=O)c1cnccn1)C(=O)c1ccccc1` (stereo not drawn) the AC50 was > 42 µM (inactive). For `CCOc1ccc(NS(=O)(=O)c2ccc(C(=O)NCc3cccnc3)cc2)cc1`, the AC50 was > 42 µM (inactive). In the case of `CCN1CCCC(NC(=O)c2scc3c2CCCC3)C1` (stereo not drawn), the AC50 is reported as > 42 µM (inactive). With `O=C(Cc1ccc(F)cc1)Nc1nc(-c2ccc(F)cc2)cs1` the AC50 was > 42 µM (inactive). With `CNC(=O)COC(=O)c1cc(-c2ccco2)nc2ccccc12` the AC50 was > 42 µM (inactive). In the case of `CN(C)CCOC(=O)CCc1ccccc1`, the AC50 is reported as > 42 µM (inactive). For `CC(=O)Nc1cccc(C(=O)OCC(=O)NCc2ccc(F)cc2)c1`, the AC50 was > 42 µM (inactive). For `S=C(NCCc1c[nH]c2ccccc12)NC1CC1`, the AC50 was > 42 µM (inactive). In the case of `CC(Cc1ccc(O)c(O)c1)C(C)Cc1ccc(O)c(O)c1` (stereo not drawn), the AC50 is reported as > 42 µM (inactive). In the case of `COc1ccccc1NC(=O)c1ccc(-n2ccnc2)c([N+](=O)[O-])c1`, the AC50 is reported as > 42 µM (inactive). With `N#C/C(=C\Nc1ccc2c(c1)OCCO2)c1nc2ccccc2[nH]1` the AC50 was > 42 µM (inactive). With `Cc1sc(NC(=O)c2ccc(F)cc2)c(CN2CCCCCC2)c1C` the AC50 was > 42 µM (inactive). For `CC(=O)c1cccc(NC(=O)CN(c2cccc(F)c2)S(C)(=O)=O)c1`, the AC50 was > 42 µM (inactive). With `COc1ccc(CN2CCN(C(=O)c3cc(-c4cccnc4)nc4ccc(Cl)cc34)CC2)c(OC)c1OC` the AC50 was > 42 µM (inactive). `C[C@H]1O[C@H]1P(=O)(O)O` was tested, and the AC50 was > 42 µM (inactive). `COc1ccc(C2=NOC(Cn3nc(C(=O)NCc4cccs4)cc3-c3ccccc3)C2)cc1` (stereo not drawn) was tested, and the AC50 was > 42 µM (inactive). With `O=C(O)c1c(C(=O)O)c(-c2ccc(F)cc2)n2c1CCC2` the AC50 was > 42 µM (inactive). For `CN(CC(=O)NCc1cccs1)S(=O)(=O)c1cccc2nsnc12`, the AC50 was > 42 µM (inactive). In the case of `CCOC(=O)C1ON2CCCCC2C1(O)C(F)(F)F` (stereo not drawn), the AC50 is reported as > 42 µM (inactive). For `Cc1ccc(C)c(S(=O)(=O)n2cnc3ccccc32)c1`, the AC50 was > 42 µM (inactive). In the case of `CCCCn1c2nc3ccccc3nc2c2c(=O)n(CCC)cnc21`, the AC50 is reported as > 42 µM (inactive). Compound `O=C(COC(=O)c1ccc([N+](=O)[O-])s1)c1ccc[nH]1` has an AC50 of 21 µM. For `O=C(O)CNS(=O)(=O)Cc1ccccc1`, the AC50 was > 42 µM (inactive). In the case of `Fc1ccc2c(c1)nnn2C1CCN(Cc2nnnn2C2CCCCC2)CC1`, the AC50 is reported as > 42 µM (inactive). For `COc1nc(OC)nc(N2CCC(C(=O)NC3CCCCCC3)CC2)n1`, the AC50 was > 42 µM (inactive). For `CCC(C)(C)NC(=O)C(c1ccc(C)cc1)N(CC1CCCO1)C(=O)CNC(=O)c1cccs1` (stereo not drawn), the AC50 was > 42 µM (inactive). `O=S(=O)(Cc1ccccc1)N1CCN(c2ncccn2)CC1` was tested, and the AC50 was > 42 µM (inactive). For `CC1(C)CC(=O)c2cnc(NC(=O)CSc3nc4ccccc4o3)nc2C1`, the AC50 was > 42 µM (inactive). Work on `Cc1ccc(S(=O)(=O)/N=C(/Nc2ccc([N+](=O)[O-])cc2[N+](=O)[O-])c2ccccc2)cc1` yielded an AC50 of 15.8 µM. In the case of `CCN(CC)c1ccc(C=C2C(=O)OC(c3ccccc3)OC2=O)cc1` (stereo not drawn), the AC50 is reported as > 42 µM (inactive). With `C(=N\Nc1ccc2nncn2n1)/c1ccccn1` the AC50 was > 42 µM (inactive). In the case of `COC(C(=O)Nc1ccnn1C1CCN(Cc2cnn(C)c2)CC1)c1ccccc1` (stereo not drawn), the AC50 is reported as > 42 µM (inactive). `CC1=C(C(=O)N2CCOCC2)C(c2ccc(O)cc2)NC(=S)N1` (stereo not drawn) was tested, and the AC50 was > 42 µM (inactive). In the case of `Cc1c(Cl)c([N+](=O)[O-])nn1CC(=O)NC12CC3CC(CC(C3)C1)C2`, the AC50 is reported as > 42 µM (inactive). In the case of `CCCN(CC1CC1)C(=O)COc1ccccc1C(=O)NCc1ccccc1`, the AC50 is reported as > 42 µM (inactive). In the case of `Cc1ccc2c(c1)C(O)(CC(=O)c1cccnc1)C(=O)N2` (stereo not drawn), the AC50 is reported as > 42 µM (inactive). `Cc1c(N=Cc2cc(Br)cc(Br)c2O)cccc1C(=O)O` was tested, and the AC50 was 3.14 µM. `O=C1C2CC=C(Cl)CC2C(=O)N1c1ncn[nH]1` (stereo not drawn) was tested, and the AC50 was > 42 µM (inactive). `CCN(CC)CCCn1c(=S)[nH]c2ccc(Cl)cc2c1=O` was tested, and the AC50 was > 42 µM (inactive). In the case of `C/C(CC(=O)Nc1cccnc1)=N\NC(=O)C(C)Oc1ccc(Cl)cc1Cl` (stereo not drawn), the AC50 is reported as > 42 µM (inactive). In the case of `COc1cccc(/C=C2/C(=O)NN(c3ccc(Br)cc3)C2=O)c1O`, the AC50 is reported as > 42 µM (inactive). Compound `CCCCC(O)(c1ccc(F)cc1)C(CN1CCOCC1)c1ccc(Cl)cc1` (stereo not drawn) has an AC50 of 5.49 µM. `Cc1nn(Cc2ccc(C(=O)Nc3ccccc3C(F)(F)F)o2)c(C)c1Br` was tested, and the AC50 was > 42 µM (inactive). In the case of `CC(=O)NCc1c(Cl)cccc1-n1cccc1`, the AC50 is reported as > 42 µM (inactive). `COc1ccc(C(=O)c2c(C)c3cc(C)ccc3n2CC(O)CN2CCOCC2)cc1` (stereo not drawn) was tested, and the AC50 was > 21 µM (inactive). With `CCOc1ccc(C)cc1S(=O)(=O)n1nc(C)cc1C` the AC50 was > 42 µM (inactive). `CN(CCOc1ccc(-c2ccn(S(=O)(=O)c3cccc4ccccc34)n2)cc1)c1ccccn1` was tested, and the AC50 was > 42 µM (inactive). With `Cc1ccc(NC(=O)Cn2c(CCC(=O)O)ccc2-c2cccs2)cc1` the AC50 was > 42 µM (inactive). In the case of `CCCn1c(N)cc(=O)n(CCC)c1=O`, the AC50 is reported as > 42 µM (inactive). For `CCc1cc2c(=O)c(-c3ccc(F)cc3)c(C(F)(F)F)oc2cc1OCC(=O)O`, the AC50 was > 42 µM (inactive). With `CC(C)c1ccc2c(c1)CCC1C(C)(CN)CCCC21C` (stereo not drawn) the AC50 was 14.3 µM. In the case of `O=C(NCc1ccccn1)C1Nc2ccc(C(F)(F)F)cc2C2C=CCC12` (stereo not drawn), the AC50 is reported as > 42 µM (inactive). In the case of `CCOc1ccccc1NC(=O)c1ccc2c(c1)C(=O)N(CC(C)C)C2=O`, the AC50 is reported as > 42 µM (inactive). In the case of `Cc1occc1-c1nnc(SCC(=O)N2CCN(c3ccccc3)CC2)n1C`, the AC50 is reported as > 42 µM (inactive). For `CC1CCCC(N2C(=O)NC(NC(=O)c3ccco3)(C(F)(F)F)C2=O)C1C` (stereo not drawn), the AC50 was > 42 µM (inactive).

Reference: PubChem BioAssay AID463204 (Broad Institute, 2010)
